In brackets after ≈: the same amount, converted by molar mass.
Experiments:
[1] = Kinetic solubility of compound in PBS at pH 6.8 incubated for 24 hrs by UPLC/MS analysis; assay type: physicochemical; conditions: read-out: Kinetic_solubility
human MDR1 (P-gp) = experiment: Apparent permeability across apical to basolateral side in pig LLC-PK1 cells expressing human MDR1 at 10 uM measured after 60 mins by LC/MS/MS analysis; assay type: ADME, cell-based, Sus scrofa
[2] = Permeability of the compound in PRISMA HT buffer at pH 7.4 at 10 uM incubated for 3 hrs by PAMPA based LC/MS/MS analysis; assay type: ADME; conditions: read-out: permeability
[3] = AUC in mouse at […], iv administered as cassette dose; assay type: ADME, organism-based; set-up: dose 0.25 mg/kg, route iv; conditions: in vivo
[4] = Hepatic blood flow in mouse at […], iv administered as cassette dose; assay type: ADME, organism-based; conditions: in vivo, dose 0.25 mg/kg

solubility kinetic at 24 h [1] [µg/mL] | Papp A→B at 1 h, 10 µM (human MDR1 (P-gp)) [×10⁻⁶ cm/s] | Papp at 3 h, 10 µM [2] [×10⁻⁶ cm/s] | AUC [3] [ng·h/mL] | QH [4] [mL/min/kg] | Compound
> 130 | > 0.2 | 1.5 | – | – | O=C(NC1CCCC1)[C@@H]1CCCCOc2cccc(c2)C[C@H](N2CCCC2=O)C(=O)N[C@@H](CCN2CCOCC2)C(=O)N1
> 140 | > 0.2 | – | – | – | CN[C@H]1Cc2cccc(c2)OCCCC[C@@H](C(=O)NC2CCCC2)NC(=O)[C@H](CCN2CCOCC2)NC1=O
100 (≈ 170 µM) | 5.7 | 15.1 | – | – | O=C(NC1CCCC1)[C@@H]1CCCCOc2cccc(c2)C[C@H](N2CCCC2=O)C(=O)N[C@@H](CCc2ccccc2)C(=O)N1
< 130 | – | 12 | – | – | O=C(NCC(F)(F)F)[C@@H]1COCCOc2cccc(c2)C[C@H](N2CCCC2=O)C(=O)N[C@@H](CCc2ccccc2)C(=O)N1
31 (≈ 49.3 µM) | 4.4 | 14.5 | – | – | O=C(NC1(C(F)(F)F)CC1)[C@@H]1CCCCOc2cccc(c2)C[C@H](N2CCCC2=O)C(=O)N[C@@H](CCc2ccccc2)C(=O)N1
< 1.4 | > 0.077 | – | – | – | CC(=O)N[C@H]1Cc2cccc(c2)Oc2cccc(c2)C[C@@H](C(=O)NCC(F)(F)F)NC(=O)[C@H](CCc2ccccc2)NC1=O
76 (≈ 126 µM) | 5.3 | 18.7 | 0.6 | 93.33 | O=C(NCC(F)(F)F)[C@@H]1CCCCOc2cccc(c2)C[C@H](N2CCCC2=O)C(=O)N[C@@H](CCc2ccccc2)C(=O)N1
6.2 (≈ 10.1 µM) | 1.1 | 16 | – | – | O=C1N[C@H](c2nnc(C(F)(F)F)o2)CCCCOc2cccc(c2)C[C@H](N2CCCC2=O)C(=O)N[C@H]1CCc1ccccc1
> 130 | 0.12 | 2 | – | – | CN(C)[C@H]1Cc2cccc(c2)OCCCC[C@@H](C(=O)NC2CCCC2)NC(=O)[C@H](CCN2CCOCC2)NC1=O
49 (≈ 85.3 µM) | 6.8 | 10.3 | – | – | O=C(NCC1CC1)[C@@H]1CCCCOc2cccc(c2)C[C@H](N2CCCC2=O)C(=O)N[C@@H](CCc2ccccc2)C(=O)N1
35 (≈ 59.9 µM) | > 1.1 | 7.2 | – | – | O=C(NCC(F)F)[C@@H]1CCCCOc2cccc(c2)C[C@H](N2CCCC2=O)C(=O)N[C@@H](CCc2ccccc2)C(=O)N1
> 120 | > 0.6 | 1.1 | – | – | Cn1cc(CNC(=O)[C@@H]2CCCCOc3cccc(c3)C[C@H](N3CCCC3=O)C(=O)N[C@@H](CCc3ccccc3)C(=O)N2)cn1
– | > 3.4 | 2.2 | – | – | CC(=O)N[C@H]1Cc2cccc(c2)Oc2cccc(c2)C[C@@H](C(=O)NCc2ccc(C)cc2)NC(=O)[C@H](CCc2ccccc2)NC1=O
> 140 | > 0.2 | – | – | – | O=C(NC1CCCC1)[C@@H]1CCCCOc2cccc(c2)C[C@H](N2CCC2)C(=O)N[C@@H](CCN2CCOCC2)C(=O)N1
90 (≈ 166 µM) | 3.5 | 26.9 | – | – | CC1(C)Cc2cccc(c2)OCCCC[C@@H](C(=O)NC2CCCC2)NC(=O)[C@H](CCN2CCOCC2)NC1=O
> 130 | 4 | 13.3 | – | – | O=C(NC1CCCC1)[C@@H]1CCCCOc2cccc(c2)C[C@H](N2CCCC2=O)C(=O)N[C@@H](CCN2CCC(F)(F)CC2)C(=O)N1
68 (≈ 122 µM) | > 2.8 | 8.9 | – | – | O=C(NC1CCCC1)[C@@H]1CCCCOc2cccc(c2)CC2(COC2)C(=O)N[C@@H](CCN2CCOCC2)C(=O)N1
20 (≈ 33.9 µM) | – | 20.8 | – | – | O=C(NC1CCCC1)[C@@H]1CCCCOc2cccc(c2)C[C@H](N2CCCC2=O)C(=O)N[C@@H](COc2ccccc2)C(=O)N1
2 (≈ 3.26 µM) | > 2.1 | 8.2 | – | – | O=C1N[C@H](c2nnc(C(F)(F)F)[nH]2)CCCCOc2cccc(c2)C[C@H](N2CCCC2=O)C(=O)N[C@H]1CCc1ccccc1
17 (≈ 28 µM) | 4.5 | 21.2 | – | – | O=C(NC1CCCC1)[C@@H]1CCCCOc2cccc(c2)C[C@H](N2CCCC2=O)C(=O)N[C@@H](CCc2ccc(F)cc2)C(=O)N1

Compound | solubility kinetic at 24 h [1] [µg/mL] | Papp A→B at 1 h, 10 µM (human MDR1 (P-gp)) [×10⁻⁶ cm/s] | Papp at 3 h, 10 µM [2] [×10⁻⁶ cm/s] | AUC [3] [ng·h/mL] | QH [4] [mL/min/kg]
Cc1ccc(CNC(=O)[C@@H]2Cc3cccc(c3)Oc3cccc(c3)C[C@H](N)C(=O)N[C@@H](CCc3ccccc3)C(=O)N2)cc1 | < 1.6 | > 0.29 | – | – | –
O=C(NCC(F)(F)F)[C@@H]1Cc2cccc(c2)Oc2cccc(c2)C[C@H](N2CCCC2=O)C(=O)N[C@@H](CCc2ccccc2)C(=O)N1 | 3.8 (≈ 5.97 µM) | – | – | – | –
